Laboratory results: paper PMC7893776, “Selecting an anti-malarial clinical candidate from two potent dihydroisoquinolones” (Malaria Journal, 2021)

Columns and labels:
human plasma proteins = test: Plasma protein binding (RED), human; format: in vitro ADME; details: average of 20, 4, 0.8 µM
Protocol: (§1) A Rapid Equilibrium Dialysis (RED) Plate (Thermo Scientific, catalog #, PI-90007) was used to determine the percentage of compound binding to plasma proteins. The positive control for this experiment was propranolol-HCl (10 mM in DMSO) and the internal standard was warfarin (2 µM in methanol). 10 mM stocks of compound in DMSO were diluted with DMSO acetonitrile (1:4, v:v) to three different intermediate concentrations: high (2 mM), medium (0.4 mM) and low (0.08 mM). A 10 mM stock of propranolol in DMSO was diluted to 0.4 mM concentration in DMSO:acetonitrile (1:4 v:v). In 16 Eppendorf tubes, the control (10 µL) or each of three compound dilutions (10 µL) were each added to separate aliquots of mouse, rat, dog, and human plasma (990 µL). In the RED plate, potassium phosphate buffer (500 µL, 0.1 M, pH 7.4, 37 °C) was placed in every white well and each plasma/compound mixture was added to each of 3 red wells. […] The compounds and internal standard were detected by selected ion recording (SIR). Using the peak area ratio of compound to warfarin from the SIR spectra, the percentage of free compound [1] and bound compound [2] were calculated using the following equations: (1) % free = (concentration buffer chamber/concentration plasma chamber)*100, and (2) % bound = 100 − % free.

[1] = Rat single oral dose toxicology / toxicokinetic study; format: in vivo, male Sprague Dawley rats
Protocol: The high dose levels of both compounds (50, 100, 200 mg/kg, PO, (+)-SJ733/311) were also independently tested by SRI, with a single oral gavage administration. Blood (through jugular vein) and urine were collected at time points up to 72 and 24 h post dose, respectively. Supernatant plasma was removed following centrifugation and stored frozen (− 70 °C) until LC–MS analysis. For toxicology studies, male Sprague Dawley rats were administered 50, 100, 250, 500, or 750 mg/kg of (r)-SJ733 or (r)-SJ311 by oral gavage (one dose per animal). Body weights were recorded on Day 1 prior to dose administration and on Day 4. Blood samples (400 µL) were collected at 4 and 24 h post drug administration from the retro-orbital sinus. Potassium EDTA treated plasma was collected and kept frozen at -70 °C for bioanalytical analysis. Rat samples from the toxicokinetic study at SRI were analyzed at SJCRH using the method described above. The calibration range was from 47 to 26,000 ng/mL for plasma.

dog plasma proteins = test: Plasma protein binding (RED), dog; format: in vitro ADME; details: average of 20, 4, 0.8 µM
Protocol: as §1

[2] = Parallel artificial membrane permeability assay (PAMPA); format: in vitro ADME
Protocol: The assay was conducted using a Biomek FX lab automation workstation (Beckman Coulter, Inc., Fullerton, CA) with PAMPA evolution 96 command software (pION Inc., Woburn, MA). Test compound stock (10 mM in DMSO, 3 µL) was mixed with citrate phosphate buffered saline (597 µL) to make diluted test compound. Diluted test compound (150 µL) was transferred to a UV plate (pION Inc., Woburn, MA) and the UV spectrum (250–500 nm) was read as the reference plate. Each well of the donor plate in a PAMPA sandwich plate (pION Inc., Woburn, MA) contained a filter that was painted on one side with 4 µL GIT lipid (pION Inc., Woburn, MA) to form a membrane. Each well in the acceptor plate in a PAMPA sandwich, preloaded with magnetic stir bars, was filled with acceptor solution buffer (200 µL, pION Inc., Woburn, MA). The donor plate was filled with diluted test compound (180 µL). The combined PAMPA plate was placed on a pIon Gut-box™ and stirred for 30 min. The UV spectrum (250–500 nm) of the donor and the acceptor were read. The permeability coefficient and recovery were calculated using PAMPA evolution 96 command software (pION Inc., Woburn, MA) based on the whole spectrum measured from the reference plate, the donor plate, and the acceptor plate. All compounds were tested in triplicate.

[3] = Storage stability of samples at −80 °C; details: stored at − 80 °C for more than 14 days, ± 15% variance
Description: All plasma samples that were shipped elsewhere from the testing facility were all analyzed within the validated stability time period.

With `N#Cc1cc(NC(=O)C2c3ccccc3C(=O)N(CC(F)(F)F)C2c2cn[nH]c2)ccc1F` (racemic) [(r)-SJ311] the “% bound” value (human plasma proteins) was 95.3 ± 0.6%, the clinical observation ([1]; rats, 100 and 500 mg/kg groups, single oral gavage) was “Ruffled fur” and the “% bound” value (dog plasma proteins) was 90.0 ± 1.0%. The “Permeability, PAMPA” value ([2]; pH 3) was 17 ± 2.3 10^–6 cm/s, the “Permeability, PAMPA” value ([2]; pH 5) was 15 ± 6.7 10^–6 cm/s and the “Permeability, PAMPA” value ([2]; pH 7.4) was 9.4 ± 7.0 10^–6 cm/s.
For `N#Cc1cc(NC(=O)[C@H]2c3ccccc3C(=O)N(CC(F)(F)F)[C@@H]2c2cn[nH]c2)ccc1F` [SJ311], the storage stability [3] was “stable”.
For `N#Cc1cc(NC(=O)[C@H]2c3ccccc3C(=O)N(CC(F)(F)F)[C@@H]2c2cccnc2)ccc1F` (racemic) [SJ733], the “AUCinf at the highest event free dose” value ([1]; rat) was “over 217 µM h”, the adverse events ([1]; rat, at any dose) was “No adverse events” and the provable therapeutic window ([1]; rat, in vivo) was “above 40”. The storage stability [3] was “stable”.
For `N#Cc1cc(NC(=O)C2c3ccccc3C(=O)N(CC(F)(F)F)C2c2cccnc2)ccc1F` (racemic) [(r)-SJ733], the “% bound” value (human plasma proteins) was 94.3 ± 0.6%, the “% bound” value (dog plasma proteins) was 88.3 ± 3.1% and the “Permeability, PAMPA” value ([2]; pH 3) was 66 ± 3.5 10^–6 cm/s. For the same molecule, the “Permeability, PAMPA” value ([2]; pH 5) was 380 ± 7.2 10^–6 cm/s and the “Permeability, PAMPA” value ([2]; pH 7.4) was 350 ± 130 10^–6 cm/s.
